Experimental data reported in patent US11345700B2, “Methods of preparing inhibitors of influenza viruses replication” (priority 2013, dated 2022).

Assays:
influenza A/PR/8/34 = assay: In vivo combination of Compound (1) with zanamivir, influenza A challenge in mice
Source text: Efficiency quotient, a composite measure of survival, bodyweight loss and lung function (% survival/(% body weight loss at Day 8)*(Penh at Day 6)) is summarized in Table 19B.

[1] = tested on: influenza A/Wisconsin/67/2005 (H3N2) challenge strain virus; assay: Human influenza challenge: nasal influenza shedding by qRT-PCR; assay type: in vivo, healthy volunteers (humans)
Protocol: Subjects underwent thrice daily nasal swabs, and kept thrice daily score cards for clinical symptoms from Days 1-7, and were discharged from the facility on Day 8, with safety follow-up at approximately Day 28. Nasal swabs were assayed for influenza virus in cell culture (primary analysis) and by qRT-PCR (secondary analysis).

[2] = tested on: influenza A/Wisconsin/67/2005 (H3N2) challenge strain virus; assay: Human influenza challenge: rates of seroconversion; assay type: in vivo, healthy volunteers (humans); conditions: for Serology Sero-conversion, n/N: ≥4-fold increase in anti-influenza antibody titer at Follow-up Visit vs baseline
[3] = Human influenza challenge: safety assessment, adverse events; assay type: in vivo, healthy volunteers (humans)
Source text: A list of adverse events occurring in ≥10% of subjects in any treatment group is presented (Table 29). Influenza-like illness was the most frequently reported adverse event, and was reported by an approximately equal proportion of subjects in the placebo and Compound (1) groups.

[4] = Zanamivir 0.3 mg/kg IN x 1 (24 h prior) + Compound (1) 0.3 mg/kg BID (from 2 h prior)
[5] = Zanamivir 0.3 mg/kg IN x 1 (24 h prior) + Compound (1) 1 mg/kg BID (from 2 h prior)
[6] = Zanamivir 1 mg/kg IN x 1 (24 h prior) + Compound (1) 0.1 mg/kg BID (from 2 h prior)
[7] = Zanamivir 1 mg/kg IN x 1 (24 h prior) + Compound (1) 0.3 mg/kg BID (from 2 h prior)
[8] = Zanamivir 1 mg/kg IN x 1 (24 h prior) + Compound (1) 1 mg/kg BID (from 2 h prior)
[9] = Zanamivir 3 mg/kg IN x 1 (24 h prior) + Compound (1) 0.1 mg/kg BID (from 2 h prior)
[10] = Zanamivir 3 mg/kg IN x 1 (24 h prior) + Compound (1) 0.3 mg/kg BID (from 2 h prior)
[11] = Zanamivir 3 mg/kg IN x 1 (24 h prior) + Compound (1) 1 mg/kg BID (from 2 h prior)
[12] = Pooled Compound (1) dose groups (N = 52)
[13] = Pooled Compound (1) dose groups

O=C(O)[C@H]1[C@H]2CC[C@H](CC2)[C@@H]1Nc1nc(-c2c[nH]c3ncc(F)cc23)ncc1F [Compound (1)]
Survival Rate (influenza A/PR/8/34; Compound (1) 0.1 mg/kg BID 10 days, 1st dose 2 h prior to infection, Zanamivir 0): 12.5
Survival Rate (influenza A/PR/8/34; Compound (1) 0.3 mg/kg BID 10 days, 1st dose 2 h prior to infection, Zanamivir 0): 44.4
Efficiency Quotient (% survival/(% body weight loss at Day 8)*(Penh at Day 6)) (influenza A/PR/8/34; Compound (1) 0.3 mg/kg BID, 1st dose 2 h prior to infection, Zanamivir 0): 0.59
Survival Rate (influenza A/PR/8/34; Compound (1) 1 mg/kg BID 10 days, 1st dose 2 h prior to infection, Zanamivir 0): 100
Efficiency Quotient (% survival/(% body weight loss at Day 8)*(Penh at Day 6)) (influenza A/PR/8/34; Compound (1) 1 mg/kg BID, 1st dose 2 h prior to infection, Zanamivir 0): 2.32
Survival Rate (influenza A/PR/8/34; Zanamivir 0.3 mg/kg IN x 1 (24 h prior) + Compound (1) 0.1 mg/kg BID (from 2 h prior)): 0
Efficiency Quotient (% survival/(% body weight loss at Day 8)*(Penh at Day 6)) (influenza A/PR/8/34; [4]): 1.35
Survival Rate (influenza A/PR/8/34; [4]): 100
Efficiency Quotient (% survival/(% body weight loss at Day 8)*(Penh at Day 6)) (influenza A/PR/8/34; [5]): 2.97
Survival Rate (influenza A/PR/8/34; [5]): 100
Efficiency Quotient (% survival/(% body weight loss at Day 8)*(Penh at Day 6)) (influenza A/PR/8/34; [6]): 1.00
Survival Rate (influenza A/PR/8/34; [6]): 75
Efficiency Quotient (% survival/(% body weight loss at Day 8)*(Penh at Day 6)) (influenza A/PR/8/34; [7]): 1.61
Survival Rate (influenza A/PR/8/34; [7]): 100
Efficiency Quotient (% survival/(% body weight loss at Day 8)*(Penh at Day 6)) (influenza A/PR/8/34; [8]): 2.31
Survival Rate (influenza A/PR/8/34; [8]): 100
Efficiency Quotient (% survival/(% body weight loss at Day 8)*(Penh at Day 6)) (influenza A/PR/8/34; [9]): 1.30
Survival Rate (influenza A/PR/8/34; [9]): 100
Efficiency Quotient (% survival/(% body weight loss at Day 8)*(Penh at Day 6)) (influenza A/PR/8/34; [10]): 1.48
Survival Rate (influenza A/PR/8/34; [10]): 100
Efficiency Quotient (% survival/(% body weight loss at Day 8)*(Penh at Day 6)) (influenza A/PR/8/34; [11]): 4.28
Survival Rate (influenza A/PR/8/34; [11]): 100
Viral Sheeding by qRT-PCR AUC, median ([1]; 100 mg QD (N = 12)): 6.05 log10 copies/mL*Day
Viral Sheeding by qRT-PCR Duration, median ([1]; 100 mg QD (N = 12)): 0.96 days
Viral Sheeding by qRT-PCR Peak, mean ([1]; 100 mg QD (N = 12)): 4.36 log10 TCID50/mL
Viral Sheeding by qRT-PCR AUC, median ([1]; 400 mg QD (N = 12)): 4.90 log10 copies/mL*Day
Viral Sheeding by qRT-PCR Duration, median ([1]; 400 mg QD (N = 12)): 1.36 days
Viral Sheeding by qRT-PCR Peak, mean ([1]; 400 mg QD (N = 12)): 3.90 log10 TCID50/mL
Viral Sheeding by qRT-PCR AUC, median ([1]; 900/600 mg (N = 14)): 10.65 log10 copies/mL*Day
Viral Sheeding by qRT-PCR Duration, median ([1]; 900/600 mg (N = 14)): 2.39 days
Viral Sheeding by qRT-PCR Peak, mean ([1]; 900/600 mg (N = 14)): 5.08 log10 TCID50/mL
Viral Sheeding by qRT-PCR AUC, median ([1]; 1200/600 mg (N = 14)): 0.45 log10 copies/mL*Day
Viral Sheeding by qRT-PCR Duration, median ([1]; 1200/600 mg (N = 14)): 0.00 days
Viral Sheeding by qRT-PCR Peak, mean ([1]; 1200/600 mg (N = 14)): 2.37 log10 TCID50/mL
Viral Sheeding by qRT-PCR AUC, median [1, 12]: 3.45 log10 copies/mL*Day
Viral Sheeding by qRT-PCR Duration, median [1, 12]: 0.71 days
Viral Sheeding by qRT-PCR Peak, mean [1, 12]: 3.91 log10 TCID50/mL
Serology Sero-conversion (%) ([2]; 100 mg QD): (69%)
Serology Sero-conversion, n/N ([2]; 100 mg QD): 11/16
Serology Sero-conversion (%) ([2]; 400 mg QD): (47%)
Serology Sero-conversion, n/N ([2]; 400 mg QD): 9/19
Serology Sero-conversion (%) ([2]; 900/600 mg): (68%)
Serology Sero-conversion, n/N ([2]; 900/600 mg): 13/19
Serology Sero-conversion (%) ([2]; 1200/600 mg): (67%)
Serology Sero-conversion, n/N ([2]; 1200/600 mg): 12/18
Serology Sero-conversion (%) [2, 13]: (63%)
Serology Sero-conversion, n/N [2, 13]: 45/72
tolerability ([3]; 100 mg to 1200/600 mg QD for 5 days, healthy volunteers): well tolerated
Adverse event: Alanine aminotransferase increased ([3]; 100 mg, N = 16): 3 (18.8) n(%)
Adverse event: Aspartate aminotransferase increased ([3]; 100 mg, N = 16): 1 (6.3) n(%)
Adverse event: Blood phosphorus decreased ([3]; 100 mg, N = 16): 3 (18.8) n(%)
Adverse event: Dermatitis contact ([3]; 100 mg, N = 16): 3 (18.8) n(%)
Adverse event: Headache ([3]; 100 mg, N = 16): 1 (6.3) n(%)
Adverse event: Influenza-like illness ([3]; 100 mg, N = 16): 8 (50.0) n(%)
Adverse event: Malaise ([3]; 100 mg, N = 16): 2 (12.5) n(%)
Adverse event: Nasal congestion ([3]; 100 mg, N = 16): 0 n(%)
Adverse event: Nausea ([3]; 100 mg, N = 16): 0 n(%)
Adverse event: Oropharylngeal pain ([3]; 100 mg, N = 16): 2 (12.5) n(%)
Adverse event: Rhinorrhea ([3]; 100 mg, N = 16): 0 n(%)
